From patent US20090227533A1, “miR-34 Regulated Genes and Pathways as Targets for Therapeutic Intervention” (priority 2007, published 2009)

Columns and labels:
[1] = tested on: normal human T cells; conditions: cited from earlier work
[2] = tested on: cervical cancer cells (HeLa); conditions: cited from earlier work
[3] = tested on: H226 lung cancer cells; test: Long-term growth curve with repeated electroporation; assay type: cell-based, human; conditions: day 31, relative to control cells (100%)
Experimental: To evaluate the therapeutic activity of hsa-miR-34a over an extended period of time, the inventors conducted growth curve experiments in the presence of miRNA for up to 31 days in H226 lung cancer cells. Since in vitro transfections of naked interfering RNAs, such as synthetic miRNA, are transient by nature and compromised by the dilution of the oligo during ongoing cell divisions, miRNA was administered at multiple time points (Bartlett et al., 2006; Bartlett et al., 2007). To accommodate miRNA delivery into a large quantity of cells, hsa-miR-34a or negative control miRNA were delivered by the electroporation method. Briefly, 1×10^6H226 were electroporated in triplicate with 1.6 μM hsa-miR-34a or negative control using the BioRad Gene Pulser Xcell™ instrument (BioRad Laboratories Inc., Hercules, Calif., USA), seeded and propagated in regular growth medium. When the control cells reached confluence (days 6, 17 and 25), cells were harvested, counted and electroporated again with the respective miRNAs. […] The population doubling was calculated from these electroporation events using the formula PD=ln(Nf/N0)/ln 2 and adjusting for the fact that approximately 72% of newly seeded cells adhere to the plate. […]

[4] = tested on: RWPE2 cells; test: Alamar Blue proliferation assay, prostate cancer cells; assay type: cell-based, human; conditions: 30 nM, normalized to negative control miRNA (100% proliferation)
Source text: (§1) The inventors assessed the therapeutic effect of hsa-miR-34a for prostate cancer by using four individual human prostate cancer cell lines. To measure cellular proliferation of prostate cancer cells, the following prostate cancer cell lines were used: PPC-1, derived from a bone metastasis; Du145, derived from a brain metastasis; RWPE2, derived from prostate cells immortalized by human papillomavirus 18 and transformed by the K-RAS oncogene; and LNCaP, derived from a lymph node metastasis (Bello et al., 1997; Pretlow et al., 1993; Stone et al., 1978; Brothman et al., 1991; Horoszewicz et al., 1980). PPC-1 and Du145 cells lack expression of the prostate-specific antigen (PSA) and are independent of androgen receptor (AR) signaling. In contrast, RWPE2 and LNCaP cells test positive for PSA and AR. Cells were transfected with synthetic hsa-miR-34a (Pre-miR™-hsa-miR-34a, Ambion cat. no. AM17100) or negative control miRNA (NC; Pre-miR™ microRNA Precursor Molecule-Negative Control #2; Ambion cat. no. AM17111) in a 96-well format using a lipid-based transfection reagent. Lipid-based reverse transfections were carried out in triplicate according to a published protocol (Ovcharenko et al., 2005) and the following parameters: cells (6,000-7,000 per 96 well), 0.1-0.2 μl Lipofectamine™ 2000 (cat. no. 11668-019, Invitrogen Corp., Carlsbad, Calif., USA) in 20 μl OptiMEM (Invitrogen), 30 nM final concentration of miRNA in 100 μl. Proliferation was assessed 4-7 days post-transfection using Alamar Blue™ (Invitrogen) following the manufacturer's instructions. As a control for inhibition of cellular proliferation, siRNA against the motor protein kinesin 11, also known as Eg5, was used. Eg5 is essential for cellular survival of most eukaryotic cells and a lack thereof leads to reduced cell proliferation and cell death (Weil et al., 2002). siEg5 was used in lipid-based transfection following the same experimental parameters that apply to miRNA. Fluorescent light units (FLU) were measured after 3 hours, normalized to the control, and plotted as percent change in proliferation. Percent proliferation of hsa-miR-34a treated cells relative to cells treated with negative control miRNA (100%) is shown in Table 9 and in FIG. 5.

[5] = tested on: PPC-1 cells; test: as above; assay type: cell-based, human; conditions: 30 nM, normalized to negative control miRNA (100% proliferation)
Source text: as §1

[6] = tested on: LNCaP cells; test: as above; assay type: cell-based, human; conditions: 30 nM, normalized to negative control miRNA (100% proliferation)
Source text: as §1

[7] = tested on: Du145 cells; test: as above; assay type: cell-based, human; conditions: 30 nM, normalized to negative control miRNA (100% proliferation)
Source text: as §1

[8] = tested on: basal cell carcinoma cells (TE354T); conditions: cited from earlier work
[9] = tested on: HeLa; conditions: cited from earlier work

For “hsa-miR-34a: synthetic miRNA; mature sequence UGGCAGUGUCUUAGCUGGUUGUU (MIMAT0000255; SEQ ID NO:1) (synthetic miRNA, chemistry not given here)”, the proliferation [1] is listed as “no anti-proliferative effect”, the proliferation [2] is listed as “inhibits the proliferation” and the “inhibition of H226 cell growth” value ([3]; 1.6 μM electroporated on days 0, 6, 17, 25) is listed as 94.9%. For the same substance, the remaining cells [3] was 5.1%, the “% proliferation” value [4] was 95.96% and the “% proliferation” value [5] was 24.65%. For the same substance, the “% proliferation” value [6] was 49.40%, the “% proliferation” value [7] was 81.26% and the proliferation [8] was “inhibits the proliferation”. The “programmed cell death (apoptosis)” value [9] was “decreased”.
